Experimental data from patent publication US20250084095A1, “Aminopyrimidine Derivatives as Cyclin-Dependent Kinase Inhibitors” (Accutar Biotechnology Inc., priority 2023, published 2025).
pIC50: −log10 of the molar value.

Test system: Phospho-Rb (Ser807/811) in SW1573-CDK4 KO cells
Experiment: Phospho-Rb expression inhibition in SW1573-CDK4 KO cells quantified by in cell Western
Assay type: cell-based
Details: Homo sapiens, 24 hours, read-out: SW1573 CDK4 KO pRb IC50
Experimental: Parental SW1573 cells were obtained from the American Type Culture Collection (ATCC). CDK4 or CDK6 gene in […] cells was knocked out using the CRISPR-Cas9 technology. First, gRNA complex of CDK4 or CDK6 was prepared with Alt-R CRISPR-Cas9 tracrRNA and crRNA CDK4 (5′-[…]-3′ (SEQ ID NO: 4)) or CDK6 (5′-[…]-3′ (SEQ ID NO. 5)) (IDT-Integrated DNA Technologies), and then ribonucleoprotein (RNP) complex of CDK4 or CDK6 was prepared with respective gRNA complex and Alt-R S.p. Cas9 Nuclease V3 (IDT-Integrated DNA Technologies). Next, 5×10^4/10 μL SWJ1573 cells were electroporated with the CDK4 or CDK6 RNP complex and Alt-R Cas9 Electroporation Enhancer using Neon Transfection System (Thermo Fisher). Cells were then plated in a 96-well plate to select single clones for validation of CDK4 or CDK6 knockout by western blot analysis.
MCF7 cells were obtained from American Type Culture Collection (ATCC, HTB-22). SW1573-CDK6 KO and SW1573-CDK4 KO cells were generated by the CRISPR-Cas9 technology. All cells were plated in 96-well plates (VWR #10062-900, or Corning #3904) in 90 uL culture medium at a density of 20,000 cells/well in the respective growth medium containing 10% FBS and 1% Penicillin Streptomycin, and then incubated at 37° C. overnight. The following day, the test compound was administered to the cells by using 1000× compound stock solution prepared in DMSO at various concentrations. 1000× compound stock solution was first diluted in culturing medium to 10×, then 10 uL compound medium was added to each well in the cell plates. After administration of the compound, the cells were then incubated at 37° C. for 24 hours. Upon completion, the cells were washed with PBS briefly. 150 uL/well of 4% formaldehyde was added and the plates were incubated at room temperature for 20 mins. The cells were washed with PBS briefly, and permeabilized with 150 uL/well of ice cold 100% methanol for 10 mins. The cells were washed with PBS briefly and blocked with 100 uL/well LI-COR blocking buffer for 1 hr at room temperature with gentle shaking. The cells were incubated overnight at 4° C. with 50 uL primary antibody rabbit anti-Phospho-Rb (Ser807/811) (1: 500, Cell Signaling, #8516) and anti-Rb (1:200, Santa Cruz, sc-73598) diluted in Intercept Blocking Buffer (LI-COR, #927-60001) containing 0.1% Tween 20. The next day, the cells were washed with 200 uL PBS containing 0.1% Tween 20, 5×5 mins at room temperature with gentle shaking, and incubated with 50 uL secondary antibody, IRDye® 800CW Goat anti-Rabbit IgG (1:1000, LI-COR, #926-32211) and IRDye®680RD Goat anti-Mouse IgG (1:1000, LI-COR, #926-68070), in LI-COR blocking buffer with 0.2% Tween 20 for 1 hr at room temperature with gentle shaking. The cells were washed with 200 uL PBS containing 0.1% Tween 20, 5×5 mins at room temperature with gentle shaking. The cells were washed with PBS for 5 mins. 100 uL fresh PBS was added to each well and the plates were imaged on a LI-COR Odyssey CLX plate reader.

Q: `Cc1c(CN2CC[C@H](F)C2)n(C(C)C)c2cc(-c3nc(N[C@@H]4C[C@H]5CO[C@H](O5)[C@H]4O)ncc3F)ccc2c1=O` [Compound 293, 7-(5-fluoro-2-(((1S,3R,4S,5R)-4-hydroxy-6,8-dioxabicyclo[3.2.1]octan-3-yl)amino)pyrimidin-4-yl)-2-(((S)-3-fluoropyrrolidin-1-yl)methyl)-1-isopropyl-3-methylquinolin-4(1H)-one] was tested. Which pIC50 did it give?
A: The pIC50 was 6.00 to 6.82.

Q: With `CC(C)n1c([C@@H]2CCOC2)nc2c(F)cc(-c3nc(N[C@@H]4C[C@H]5CO[C@H](O5)[C@H]4O)ncc3F)cc21` [Compound 270, (1S,3R,4S,5R)-3-((5-fluoro-4-(4-fluoro-1-isopropyl-2-((S)-tetrahydrofuran-3-yl)-1H-benzo[d]imidazol-6-yl)pyrimidin-2-yl)amino)-6,8-dioxabicyclo[3.2.1]octan-4-ol] as the compound, how does the pIC50 read?
A: The pIC50 was < 6.00.

Q: `Cc1c(-c2nc(N[C@@H]3C[C@H]4CO[C@H](O4)[C@H]3O)ncc2F)sc2c(Cl)c(C(C)(C)O)cnc12` [Compound 276, (1S,3R,4S,5R)-3-((4-(7-chloro-6-(2-hydroxypropan-2-yl)-3-methylthieno[3,2-b]pyridin-2-yl)-5-fluoropyrimidin-2-yl)amino)-6,8-dioxabicyclo[3.2.1]octan-4-ol] was tested. Which pIC50 did it give?
A: The pIC50 was 6.00 to 6.82.

Q: How did the pIC50 turn out when `CC(C)n1c([C@H]2CCOC2)nc2c(F)cc(-c3nc(N[C@@H]4C[C@H]5CO[C@H](O5)[C@H]4O)ncc3F)cc21` [Compound 269, (1S,3R,4S,5R)-3-((5-fluoro-4-(4-fluoro-1-isopropyl-2-((R)-tetrahydrofuran-3-yl)-1H-benzo[d]imidazol-6-yl)pyrimidin-2-yl)amino)-6,8-dioxabicyclo[3.2.1]octan-4-ol] was run?
A: Its pIC50 is < 6.00.

Q: `Cc1c(-c2nc(N[C@@H]3C[C@H]4CO[C@H](O4)[C@H]3O)ncc2Cl)sc2c(C(C)C)cnnc12` [Compound 259, (1S,3R,4S,5R)-3-((5-chloro-4-(4-isopropyl-7-methylthieno[3,2-c]pyridazin-6-yl)pyrimidin-2-yl)amino)-6,8-dioxabicyclo[3.2.1]octan-4-ol] was tested. Which pIC50 did it give?
A: Its pIC50 is 6.00 to 6.82.

Q: `Cc1nc2c(F)cc(-c3nc(N[C@@H]4C[C@H]5CO[C@H](O5)[C@H]4O)ncc3Cl)cc2n1C(C)C` [Compound 25, (1S,3R,4S,5R)-3-((5-chloro-4-(4-fluoro-1-isopropyl-2-methyl-1H-benzo[d]imidazol-6-yl)pyrimidin-2-yl)amino)-6,8-dioxabicyclo[3.2.1]octan-4-ol] was tested. Which pIC50 did it give?
A: Its pIC50 is < 6.00.

Q: `COC(=O)N1CC[C@@H](c2nc3c(F)cc(-c4nc(N[C@@H]5C[C@H]6CO[C@H](O6)[C@H]5O)ncc4F)cc3n2C(C)C)C1` [Compound 265, methyl (R)-3-(4-fluoro-6-(5-fluoro-2-(((1S,3R,4S,5R)-4-hydroxy-6,8-dioxabicyclo[3.2.1]octan-3-yl)amino)pyrimidin-4-yl)-1-isopropyl-1H-benzo[d]imidazol-2-yl)pyrrolidine-1-carboxylate] was tested. Which pIC50 did it give?
A: Its pIC50 is < 6.00.

Q: With `Cc1c(C)n(C(C)C)c2cc(-c3nc(N[C@@H]4C[C@H]5CO[C@H](O5)[C@H]4O)ncc3Cl)ccc2c1=O` [Compound 191, 7-(5-chloro-2-(((1S,3R,4S,5R)-4-hydroxy-6,8-dioxabicyclo[3.2.1]octan-3-yl)amino)pyrimidin-4-yl)-1-isopropyl-2,3-dimethylquinolin-4(1H)-one] as the compound, how does the pIC50 read?
A: The pIC50 was < 6.00.

Q: With `CNCc1c(C)c(=O)c2ccc(-c3nc(N[C@@H]4C[C@H]5CO[C@H](O5)[C@H]4O)ncc3F)cc2n1C(C)C` [Compound 194, 7-(5-fluoro-2-(((1S,3R,4S,5R)-4-hydroxy-6,8-dioxabicyclo[3.2.1]octan-3-yl)amino)pyrimidin-4-yl)-1-isopropyl-3-methyl-2-((methylamino)methyl)quinolin-4(1H)-one] as the compound, how does the pIC50 read?
A: The pIC50 was < 6.00.

Q: `Cc1c(CN2[C@@H](C)COC[C@@H]2C)n(C(C)C)c2cc(-c3nc(N[C@@H]4C[C@H]5CO[C@H](O5)[C@H]4O)ncc3Cl)ccc2c1=O` [Compound 206, 7-(5-chloro-2-(((1S,3R,4S,5R)-4-hydroxy-6,8-dioxabicyclo[3.2.1]octan-3-yl)amino)pyrimidin-4-yl)-2-(((3S,5S)-3,5-dimethylmorpholino)methyl)-1-isopropyl-3-methylquinolin-4(1H)-one] was tested. Which pIC50 did it give?
A: The pIC50 was 6.00 to 6.82.

Q: With `CC(C)(O)c1cnc2c(F)cc(-c3nc(N[C@@H]4C[C@H]5CO[C@H](O5)[C@H]4O)ncc3Cl)cc2c1Cl` [Compound 252, (1S,3R,4S,5R)-3-((5-chloro-4-(4-chloro-8-fluoro-3-(2-hydroxypropan-2-yl)quinolin-6-yl)pyrimidin-2-yl)amino)-6,8-dioxabicyclo[3.2.1]octan-4-ol] as the compound, how does the pIC50 read?
A: Its pIC50 is 6.00 to 6.82.

Q: With `CC(C)n1c(CN2[C@@H](C)COC[C@@H]2C)cc(=O)c2ccc(-c3nc(N[C@@H]4C[C@H]5CO[C@H](O5)[C@H]4O)ncc3Cl)cc21` [Compound 205, 7-(5-chloro-2-(((1S,3R,4S,5R)-4-hydroxy-6,8-dioxabicyclo[3.2.1]octan-3-yl)amino)pyrimidin-4-yl)-2-(((3S,5S)-3,5-dimethylmorpholino)methyl)-1-isopropylquinolin-4(1H)-one] as the compound, how does the pIC50 read?
A: Its pIC50 is < 6.00.

Q: With `CC(C)(O)c1cnc2c(F)cc(-c3nc(N[C@@H]4C[C@H]5CO[C@H](O5)[C@H]4O)ncc3F)cc2c1Cl` [Compound 255, (1S,3R,4S,5R)-3-((4-(4-chloro-8-fluoro-3-(2-hydroxypropan-2-yl)quinolin-6-yl)-5-fluoropyrimidin-2-yl)amino)-6,8-dioxabicyclo[3.2.1]octan-4-ol] as the compound, how does the pIC50 read?
A: Its pIC50 is < 6.00.

Q: With `Cc1c(C(C)(C)O)cnc2c(F)cc(-c3nc(N[C@@H]4C[C@H]5CO[C@H](O5)[C@H]4O)ncc3F)cc12` [Compound 256, (1S,3R,4S,5R)-3-((5-fluoro-4-(8-fluoro-3-(2-hydroxypropan-2-yl)-4-methylquinolin-6-yl)pyrimidin-2-yl)amino)-6,8-dioxabicyclo[3.2.1]octan-4-ol] as the compound, how does the pIC50 read?
A: The pIC50 was < 6.00.

Q: With `CC(C)n1c(CN2[C@@H](C)COC[C@@H]2C)c(C(F)F)c(=O)c2ccc(-c3nc(N[C@@H]4C[C@H]5CO[C@H](O5)[C@H]4O)ncc3Cl)cc21` [Compound 204, 7-(5-chloro-2-(((1S,3R,4S,5R)-4-hydroxy-6,8-dioxabicyclo[3.2.1]octan-3-yl)amino)pyrimidin-4-yl)-3-(difluoromethyl)-2-(((3S,5S)-3,5-dimethylmorpholino)methyl)-1-isopropylquinolin-4(1H)-one] as the compound, how does the pIC50 read?
A: The pIC50 was < 6.00.

Q: `Cc1c(-c2nc(N[C@@H]3C[C@H]4CO[C@H](O4)[C@H]3O)ncc2Cl)sc2c(C)c(C(C)(C)O)cnc12` [Compound 277, (1S,3R,4S,5R)-3-((5-chloro-4-(6-(2-hydroxypropan-2-yl)-3,7-dimethylthieno[3,2-b]pyridin-2-yl)pyrimidin-2-yl)amino)-6,8-dioxabicyclo[3.2.1]octan-4-ol] was tested. Which pIC50 did it give?
A: Its pIC50 is < 6.00.

Q: How did the pIC50 turn out when `Cc1c(-c2nc(N[C@@H]3C[C@H]4CO[C@H](O4)[C@H]3O)ncc2Cl)sc2c(Cl)c(C(C)(C)O)cnc12` [Compound 275, (1S,3R,4S,5R)-3-((5-chloro-4-(7-chloro-6-(2-hydroxypropan-2-yl)-3-methylthieno[3,2-b]pyridin-2-yl)pyrimidin-2-yl)amino)-6,8-dioxabicyclo[3.2.1]octan-4-ol] was run?
A: The pIC50 was < 6.00.

Q: `CC(C)n1c([C@@H]2CC2(F)F)nc2c(F)cc(-c3nc(N[C@@H]4C[C@H]5CO[C@H](O5)[C@H]4O)ncc3Cl)cc21` [Compound 216, (1S,3R,4S,5R)-3-((5-chloro-4-(2-((S)-2,2-difluorocyclopropyl)-4-fluoro-1-isopropyl-1H-benzo[d]imidazol-6-yl)pyrimidin-2-yl)amino)-6,8-dioxabicyclo[3.2.1]octan-4-ol] was tested. Which pIC50 did it give?
A: Its pIC50 is 6.00 to 6.82.

Q: With `Cc1c(CN2CCC2)n(C(C)C)c2cc(-c3nc(N[C@@H]4C[C@H]5CO[C@H](O5)[C@H]4O)ncc3F)ccc2c1=O` [Compound 196, 2-(azetidin-1-ylmethyl)-7-(5-fluoro-2-(((1S,3R,4S,5R)-4-hydroxy-6,8-dioxabicyclo[3.2.1]octan-3-yl)amino)pyrimidin-4-yl)-1-isopropyl-3-methylquinolin-4(1H)-one] as the compound, how does the pIC50 read?
A: The pIC50 was < 6.00.
